ChEMBL document CHEMBL1127245, “The effect of heteroatom substitution on a series of phosphonate inhibitors of neutral endopeptidase 24.11” (Bioorg Med Chem Lett, 1994)

target: T1, Neprilysin (Rattus norvegicus, UniProt P07861); experiment: In vitro inhibitory activity against neutral endopeptidase (NEP 24.11) from rat kidney cortex membranes
T1 sequence (P07861 whole entry): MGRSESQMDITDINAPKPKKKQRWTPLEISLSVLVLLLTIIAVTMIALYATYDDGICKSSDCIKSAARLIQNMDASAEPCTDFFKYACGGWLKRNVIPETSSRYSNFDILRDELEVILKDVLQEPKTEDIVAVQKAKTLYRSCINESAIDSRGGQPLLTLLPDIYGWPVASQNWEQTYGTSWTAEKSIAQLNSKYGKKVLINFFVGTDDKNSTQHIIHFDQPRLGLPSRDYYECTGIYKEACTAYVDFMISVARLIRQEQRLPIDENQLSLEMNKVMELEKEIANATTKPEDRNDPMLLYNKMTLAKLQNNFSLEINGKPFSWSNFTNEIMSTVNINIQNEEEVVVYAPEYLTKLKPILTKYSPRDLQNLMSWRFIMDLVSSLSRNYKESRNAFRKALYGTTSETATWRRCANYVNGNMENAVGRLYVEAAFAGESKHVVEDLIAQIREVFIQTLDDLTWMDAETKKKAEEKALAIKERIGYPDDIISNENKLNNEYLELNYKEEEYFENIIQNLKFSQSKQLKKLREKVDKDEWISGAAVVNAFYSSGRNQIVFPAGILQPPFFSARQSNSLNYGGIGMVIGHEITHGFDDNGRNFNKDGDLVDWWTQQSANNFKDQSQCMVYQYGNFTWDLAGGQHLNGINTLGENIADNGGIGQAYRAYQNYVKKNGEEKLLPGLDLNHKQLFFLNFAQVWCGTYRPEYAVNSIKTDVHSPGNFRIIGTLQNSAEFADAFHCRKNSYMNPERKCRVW

Row | IC50 [µM] | Compound
1 | 1 | O=C(O)CCNC(=O)C(CCP(=O)(O)O)Cc1ccc(-c2ccccc2)cc1 (stereo not given)
2 | 0.797 | O=C(O)CCNC(=O)C(Cc1ccc(-c2ccccc2)cc1)SCP(=O)(O)O (stereo not given)
3 | 0.0016 | O=C(O)CCNC(=O)[C@H](Cc1ccc(-c2ccccc2)cc1)NCP(=O)(O)O
4 | > 10 | O=C(O)CCNC(=O)C(Cc1ccc(-c2ccccc2)cc1)S(=O)(=O)CP(=O)(O)O (stereo not given)
5 | 0.0095 | O=C(O)CCNC(=O)C(Cc1ccc(-c2ccccc2)cc1)OCP(=O)(O)O (stereo not given)
